Values joined by “and” are separate entries in the source; they are usually repeats but may differ in a detail not shown here. Equal entries are not always repeated. Where two headings read alike, the source gives them in different places.
Tests used:
[1] = Pharmacokinetics of MRS4322 following intravenous administration to neonatal pigs; assay type: in vivo
Description: Animals. Four-week old female neonatal pigs weighing approximately 7.5 Kg were used for this study, supplied by the Department of Bioengineering, University of Pennsylvania (Philadelphia, PA). Animals were equipped with brain microdialysis probes to obtain brain extracellular fluid samples for drug concentration determinations during the study. All studies were conducted under approved University of Pennsylvania IACUC protocols.
Drug Administration: MRS4322 was solubilized in DMSO and then diluted in saline to prepare dosing solution. A 10 mL volume of dosing solution was administered by intravenous bolus administration to each neonatal pig (n=3).
Tissue Sampling: Blood samples were obtained at 0.25, 0.5, 1, 2, 4 and 6 hours post-dose. Brain extracellular fluid samples were obtained from implanted microdialysis probes at 1, 4 and 6 hours post-dose. Whole blood (1 mL) was obtained at each timepoint and placed in vacutainer tubes containing heparin and immediately centrifuged for preparation of plasma; plasma was stored at −80° C. Brain extracellular and cerebrospinal fluid samples were stored at −80° C. At the time of euthanasia (6 hours post-dose), cerebrospinal fluid samples were obtained and frozen, while brain samples from the cortex and hippocampus were obtained by decapitation, rinsed in ice-cold phosphate-buffered saline and weighed. Brain samples were then immediately flash-frozen in liquid nitrogen and stored at −80° C.
The following table outlines the LC and MS/MS conditions employed:
The calibration ranges for all of the MRS4322 matrice's standard curves were 0.1-1000 ng/mL.
For bioanalysis of brain concentrations of MRS4322, brain samples were homogenized in ice-cold phosphate-buffered saline in a 4× dilution. Aliquots of the resulting diluted brain homogenate were treated with acetonitrile and analyzed by LC-MS/MS.

[2] = Plasma binding determination by plasma ultrafiltration, neonatal pig; assay type: in vitro ADME; details: female, 37° C., read-out: % Bound Mean (converted)
Description: Plasma ultrafiltrate blank samples were prepared by thawing frozen plasma and then pre-warming plasma in a humidified 5% CO2 chamber at 37 C for 60 minutes. Aliquots of 800 ul were transferred to Centrifree Centrifugal Filters (Ultracel regenerated cellulose (NMWL 30,000 amu) Lot R5JA31736) and centrifuged at 2900 RPM at 37 C for 10 minutes; plasma water filtrates were collected and used in preparation of standards, blanks and QC standards.
Plasma Binding Determination. […] Plasma samples were pre-warmed for 60 minutes in a humidified, 5% CO2 incubator maintained at 37° C. […] Spiked plasma samples were incubated on a rotary mixer in a humidified 5% CO2 chamber at 37° C. for a minimum of 60 minutes. After 60 minutes, three 800 ul aliquots of each sample were added to Centrifree centrifugal filters. The filters were subjected to centrifugation at 2900 rpm for 10 minutes at 37° C. Three 100 ul aliquots of residual plasma were collected along with ultrafiltrate for bioanalysis.
For each tissue matrix, standard curves were created and LLOQ/ULOQ concentrations determined.

[3] = biological target: T1, mouse A3 adenosine receptor (Mus musculus, UniProt Q61618); assay: cAMP accumulation at mouse A3 receptors expressed in CHO cells; assay type: cell-based
T1 construct: expressed in transfected cells; whole cells for cAMP
T1 sequence (Q61618 1-319): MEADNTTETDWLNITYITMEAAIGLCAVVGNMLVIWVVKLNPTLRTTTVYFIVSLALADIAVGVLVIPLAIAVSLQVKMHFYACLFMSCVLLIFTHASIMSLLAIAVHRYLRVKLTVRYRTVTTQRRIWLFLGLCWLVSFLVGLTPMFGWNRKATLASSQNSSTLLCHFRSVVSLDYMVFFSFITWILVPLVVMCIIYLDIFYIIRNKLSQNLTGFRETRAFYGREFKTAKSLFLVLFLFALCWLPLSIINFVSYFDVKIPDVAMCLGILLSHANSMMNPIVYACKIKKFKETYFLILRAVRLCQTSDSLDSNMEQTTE
Description: Additionally cAMP experiments were conducted at CHO cells recombinantly expressing human A3 or mouse A3 adenosine receptors, respectively.

[4] = plasma, MRS4322 0.2 mg/kg IV, individual animals, 0.2 mg/kg

## CSc1nc(N)c2ncn([C@H]3[C@H](O)[C@H](O)[C@]4(CO)C[C@H]34)c2n1 [MRS4322]
[1]; Brain Cortex, MRS4322 0.2 mg/kg IV, 6 h, individual subjects, 0.2 mg/kg
  Brain Concentration by Subject: 3.80 ng/mL and 6.15 ng/mL
[1]; Brain Hippocampus, MRS4322 0.2 mg/kg IV, 6 h, individual subjects, 0.2 mg/kg
  Brain Concentration by Subject: 4.56 ng/mL and 5.39 ng/mL
[1]; CSF, MRS4322 0.2 mg/kg IV, 6 h, individual subjects, 0.2 mg/kg
  Cerebro-Spinal Fluid Concentration by Subject: 1.04 ng/mL and 1.75 ng/mL
[1]; MRS4322 0.2 mg/kg IV, 0 h, individual subjects
  Plasma Concentration by Subject: BLQ
[1]; MRS4322 0.2 mg/kg IV, 0 h, mean
  Plasma Concentration Mean: BLQ
[1]; MRS4322 0.2 mg/kg IV, 0.25 h, individual subjects, 0.2 mg/kg
  Plasma Concentration by Subject: 120 ng/mL and 163 ng/mL
[1]; MRS4322 0.2 mg/kg IV, 0.5 h, individual subjects, 0.2 mg/kg
  Plasma Concentration by Subject: 54.1 ng/mL and 98.7 ng/mL
[1]; MRS4322 0.2 mg/kg IV, 1 h, individual subjects, 0.2 mg/kg
  Plasma Concentration by Subject: 51.4 ng/mL and 63.0 ng/mL
[1]; MRS4322 0.2 mg/kg IV, 2 h, individual subjects, 0.2 mg/kg
  Plasma Concentration by Subject: 27.2 ng/mL and 18.7 ng/mL and 46.8 ng/mL
[1]; MRS4322 0.2 mg/kg IV, 4 h, individual subjects, 0.2 mg/kg
  Plasma Concentration by Subject: 21.9 ng/mL and 28.7 ng/mL
[1]; MRS4322 0.2 mg/kg IV, 6 h, individual subjects, 0.2 mg/kg
  Plasma Concentration by Subject: 15.3 ng/mL and 9.08 ng/mL and 20.8 ng/mL
[1]; brain ECF (microdialysis), MRS4322 0.2 mg/kg IV, 1 h, individual subjects, 0.2 mg/kg
  Extracellular Fluid Concentration by Subject: 1.55 ng/mL and 0.641 ng/mL and 1.70 ng/mL
[1]; brain ECF, MRS4322 0.2 mg/kg IV, 4 h, individual subjects, 0.2 mg/kg
  Extracellular Fluid Concentration by Subject: 0.693 ng/mL and 0.579 ng/mL and 1.36 ng/mL
[1]; brain ECF, MRS4322 0.2 mg/kg IV, 6 h, individual subjects, 0.2 mg/kg
  Extracellular Fluid Concentration by Subject: 0.602 ng/mL and 0.459 ng/mL and 1.08 ng/mL
[1]; female, pig, 0.2 mg/kg, IV, 6 hours post-dose, based on mean concentrations in plasma and brain, read-out: brain/plasma ratio of total drug
  Kp at 6 h: ~0.3
[1]; female, pig, brain cortex, iv, 0.2 mg/kg, Brain Cortex, MRS4322 0.2 mg/kg IV, 6 h, individual subjects, read-out: Brain Concentration by Subject
  concentration at 6 h: 5.34 ng/mL
[1]; female, pig, brain cortex, iv, 0.2 mg/kg, Brain Cortex, MRS4322 0.2 mg/kg IV, 6 h, mean, read-out: Brain Concentration Mean
  concentration at 6 h: 5.1 ng/mL
[1]; female, pig, brain extracellular fluid, iv, 0.2 mg/kg, brain ECF, MRS4322 0.2 mg/kg IV, 1 h, mean, read-out: Extracellular Fluid Concentration Mean
  concentration at 1 h: 1.3 ng/mL
[1]; female, pig, brain extracellular fluid, iv, 0.2 mg/kg, brain ECF, MRS4322 0.2 mg/kg IV, 4 h, mean, read-out: Extracellular Fluid Concentration Mean
  concentration at 4 h: 0.941 ng/mL
[1]; female, pig, brain extracellular fluid, iv, 0.2 mg/kg, brain ECF, MRS4322 0.2 mg/kg IV, 6 h, mean, read-out: Extracellular Fluid Concentration Mean
  concentration at 6 h: 0.714 ng/mL
[1]; female, pig, brain hippocampus, iv, 0.2 mg/kg, Brain Hippocampus, MRS4322 0.2 mg/kg IV, 6 h, individual subjects, read-out: Brain Concentration by Subject
  concentration at 6 h: 6.47 ng/mL
[1]; female, pig, brain hippocampus, iv, 0.2 mg/kg, Brain Hippocampus, MRS4322 0.2 mg/kg IV, 6 h, mean, read-out: Brain Concentration Mean
  concentration at 6 h: 5.47 ng/mL
[1]; female, pig, cerebrospinal fluid, iv, 0.2 mg/kg, CSF, MRS4322 0.2 mg/kg IV, 6 h, individual subjects, read-out: Cerebro-Spinal Fluid Concentration by Subject
  concentration at 6 h: 1.37 ng/mL
[1]; female, pig, cerebrospinal fluid, iv, 0.2 mg/kg, CSF, MRS4322 0.2 mg/kg IV, 6 h, mean, read-out: Cerebro-Spinal Fluid Concentration Mean
  concentration at 6 h: 1.39 ng/mL
[1]; female, pig, plasma, MRS4322 0.2 mg/kg IV, mean, read-out: Tmax Mean
  Tmax: 0.25 h
[1]; female, pig, plasma, iv, 0.2 mg/kg, MRS4322 0.2 mg/kg IV, 0.25 h, individual subjects, read-out: Plasma Concentration by Subject
  concentration at 0.25 h: 133 ng/mL
[1]; female, pig, plasma, iv, 0.2 mg/kg, MRS4322 0.2 mg/kg IV, 0.25 h, mean, read-out: Plasma Concentration Mean
  concentration at 0.25 h: 139 ng/mL
[1]; female, pig, plasma, iv, 0.2 mg/kg, MRS4322 0.2 mg/kg IV, 0.5 h, individual subjects, read-out: Plasma Concentration by Subject
  concentration at 0.5 h: 85.3 ng/mL
[1]; female, pig, plasma, iv, 0.2 mg/kg, MRS4322 0.2 mg/kg IV, 0.5 h, mean, read-out: Plasma Concentration Mean
  concentration at 0.5 h: 79.4 ng/mL
[1]; female, pig, plasma, iv, 0.2 mg/kg, MRS4322 0.2 mg/kg IV, 1 h, individual subjects, read-out: Plasma Concentration by Subject
  concentration at 1 h: 58.9 ng/mL
[1]; female, pig, plasma, iv, 0.2 mg/kg, MRS4322 0.2 mg/kg IV, 1 h, mean, read-out: Plasma Concentration Mean
  concentration at 1 h: 57.8 ng/mL
[1]; female, pig, plasma, iv, 0.2 mg/kg, MRS4322 0.2 mg/kg IV, 2 h, mean
  concentration at 2 h: 30.9 ng/mL
[1]; female, pig, plasma, iv, 0.2 mg/kg, MRS4322 0.2 mg/kg IV, 4 h, individual subjects, read-out: Plasma Concentration by Subject
  concentration at 4 h: 23.3 ng/mL
[1]; female, pig, plasma, iv, 0.2 mg/kg, MRS4322 0.2 mg/kg IV, 4 h, mean, read-out: Plasma Concentration Mean
  concentration at 4 h: 24.6 ng/mL
[1]; female, pig, plasma, iv, 0.2 mg/kg, MRS4322 0.2 mg/kg IV, 6 h, mean, read-out: Plasma Concentration Mean
  concentration at 6 h: 15.1 ng/mL
[1]; female, pig, plasma, iv, 0.2 mg/kg, MRS4322 0.2 mg/kg IV, mean
  half-life: 3.42 h
[1]; female, pig, plasma, iv, 0.2 mg/kg, plasma, MRS4322 0.2 mg/kg IV, individual animals, read-out: AUCINF
  AUC(0-inf): 344 ng·h/mL
[1]; female, pig, plasma, iv, 0.2 mg/kg, plasma, MRS4322 0.2 mg/kg IV, individual animals, read-out: AUClast
  AUC(0-t): 238 ng·h/mL
[1]; female, pig, plasma, iv, 0.2 mg/kg, plasma, MRS4322 0.2 mg/kg IV, individual animals, read-out: C0
  C0: 207 ng/mL
[1]; female, pig, plasma, iv, 0.2 mg/kg, plasma, MRS4322 0.2 mg/kg IV, individual animals, read-out: Cl
  clearance: 9.68 mL/min/kg
[1]; female, pig, plasma, iv, 0.2 mg/kg, plasma, MRS4322 0.2 mg/kg IV, individual animals, read-out: Cmax
  Cmax: 133 ng/mL
[1]; female, pig, plasma, iv, 0.2 mg/kg, plasma, MRS4322 0.2 mg/kg IV, individual animals, read-out: Vz
  Vd: 4.04 L/kg
[1]; female, pig, plasma, iv, 0.2 mg/kg, plasma, MRS4322 0.2 mg/kg IV, mean, read-out: AUCINF Mean
  AUC(0-inf): 326 ng·h/mL
[1]; female, pig, plasma, iv, 0.2 mg/kg, plasma, MRS4322 0.2 mg/kg IV, mean, read-out: AUClast Mean
  AUC(0-t): 249 ng·h/mL
[1]; female, pig, plasma, iv, 0.2 mg/kg, plasma, MRS4322 0.2 mg/kg IV, mean, read-out: C0 Mean
  C0: 248 ng/mL
[1]; female, pig, plasma, iv, 0.2 mg/kg, plasma, MRS4322 0.2 mg/kg IV, mean, read-out: Cl Mean
  clearance: 10.8 mL/min/kg
[1]; female, pig, plasma, iv, 0.2 mg/kg, plasma, MRS4322 0.2 mg/kg IV, mean, read-out: Cmax Mean
  Cmax: 139 ng/mL
[1]; female, pig, plasma, iv, 0.2 mg/kg, plasma, MRS4322 0.2 mg/kg IV, mean, read-out: Vz Mean
  Vd: 3.05 L/kg
[1]; plasma, MRS4322 0.2 mg/kg IV, individual animals
  Tmax: 0.25 h
[1]; [4]
  AUCINF: 233 ng·h/mL and 401 ng·h/mL
  AUClast: 203 ng·h/mL and 307 ng·h/mL
  C0: 286 ng/mL and 289 ng/mL
  Cl: 14.3 mL/min/kg and 8.31 mL/min/kg
  Cmax: 120 ng/mL and 163 ng/mL
  Half Life: 4.82 h and 2.31 h and 3.13 h
  Vz: 2.86 L/kg and 2.25 L/kg
[2]
  fraction unbound at 60 min, 1 uM: 0.784
[3]; CHO cells stably expressing mouse A3R, read-out: EC50 ± SEM, Mouse A3R, cAMP accumulation
  EC50: 759 ± 170 nM
[3]; read-out: efficacy at 100 μM concentration in % relative to maximal effect of NECA, Mouse A3R, 100 μM, cAMP accumulation, CHO cells
  Emax at 100 µM: 72%

Reference: patent US12239654B2, “Compounds and methods for treating neurological and cardiovascular conditions” (Astrocyte Pharmaceuticals, Inc., priority 2016, dated 2025)
